Assay results reported in BigSolDB 2.1.

O=P1(c2cc(O)ccc2O)Oc2ccccc2-c2ccccc21 (configuration not stated)
Settings | solubility (mole fraction)
in 2-ethoxyethanol, 293.15 K | 0.000896
in 2-ethoxyethanol, 298.15 K | 0.0012
in 2-ethoxyethanol, 302.98 K | 0.00157
in 2-ethoxyethanol, 308 K | 0.00207
in 2-ethoxyethanol, 313 K | 0.00248
in 2-ethoxyethanol, 317.8 K | 0.00347
in 2-ethoxyethanol, 322.7 K | 0.00439
in 2-ethoxyethanol, 327.65 K | 0.00556
in 2-ethoxyethanol, 332.65 K | 0.00702
in 2-ethoxyethanol, 337.6 K | 0.00896
in 2-ethoxyethanol, 342.58 K | 0.0109
in 2-ethoxyethanol, 347.4 K | 0.0134
in 2-ethoxyethanol, 352.83 K | 0.0168
in 2-ethoxyethanol, 357.7 K | 0.0207
in 2-ethoxyethanol, 362.67 K | 0.0249
in 2-ethoxyethanol, 367.65 K | 0.0301
in acetone, 292.15 K | 0.00153
in acetone, 297.15 K | 0.00182
in acetone, 302.15 K | 0.00226
in acetone, 307.85 K | 0.00304
in acetone, 312.9 K | 0.0037
in acetone, 317.65 K | 0.00427
in acetone, 322.6 K | 0.00551
in ethanol, 293.15 K | 0.00205
in ethanol, 298.1 K | 0.00224
in ethanol, 303.05 K | 0.00241
in ethanol, 307.95 K | 0.0027
in ethanol, 312.95 K | 0.00282
in ethanol, 317.8 K | 0.00309
in ethanol, 322.8 K | 0.00332
in ethanol, 327.85 K | 0.00352
in methanol, 293.15 K | 0.00107
in methanol, 298 K | 0.00128
in methanol, 302.9 K | 0.0015
in methanol, 307.85 K | 0.00182
in methanol, 312.84 K | 0.00227
in methanol, 317.6 K | 0.0026
in methanol, 322.63 K | 0.00292
in water, 303 K | 0.000139
in water, 307.95 K | 0.000143
in water, 312.85 K | 0.000151
in water, 317.6 K | 0.000155
in water, 322.45 K | 0.000165
in water, 327.65 K | 0.000168
in water, 332.5 K | 0.000175
in water, 337.55 K | 0.000184
in water, 342.35 K | 0.000189
